Experimental data taken from patent publication US8603976B2, “Methods of enhancing functioning of the large intestine” (1149336 Ontario, Inc., priority 1997, dated 2013).

What was measured:
Assay type in all cases: in vivo
Female CD1 mice [1] = test: 5% dextran sulfate induced ulcerative colitis model in mice (Example 2)
Description: This experiment was designed to test the activity of GLP-2 in ameliorating disease symptoms in an animal model of colitis. A 5% dextran sulfate solution was used to induce ulcerative colitis in test mice (Okayasu et al., 1990, 98:694-702).
Forty female CD1 mice (six-weeks old and approximately 25 g, obtained from Charles River) were used in the experiment. On day 1, the mice were weighed using a Mettler PJ300 scale and randomly allocated to 1 of eight treatment groups. The groups, each consisting of 5 mice housed together, were treated as follows:
These two groups were fed normal drinking water.
Group 1) Ten days of injections (PBS), day 7 to day 17, animals sacrificed day 17.
Group 2) Ten days of injections human (Gly 2) GLP-2 (2.5 μg bid), day 7 to day 17, animals sacrificed day 17.
Groups 3 and 4—Test Group
Drinking water given to these groups contained 5% Dextran sulfate (DS).
Group 3) DS given from day 7 to day 17, PBS injections given from day 7 to day 17, animals sacrificed day 17.
Group 4) DS given from day 7 to day 17, human[Gly^2] GLP-2 (2.5 μg bid) injections given day 7 to day 17, animals sacrificed day 17.
Groups 5 and 6—Test Group
Drinking water contained 5% Dextran sulfate day 2 to day 9, followed by 4 days of normal drinking water. Ten days of injections were started day 4. […]
Dextran sulfate (USB, Cleveland, Ohio, MW 40,000-50,000) was dissolved into double distilled water, and placed into the water bottles. Water bottles were topped up daily. GLP-2 peptide was reconstituted and aliquoted on the day prior to the first day of injection and kept in a −20 C. freezer. Human [Gly^2]GLP-2 (5 mg/mL) was reconstituted in PBS. One microliter of 5N NaOH was required to dissolve the peptide in a volume of 1 ml. The injection volume of 0.5 ml was constant throughout the experiment using ½ cc U-100 Insulin Syringes Becton Dickinson and Company, NJ). Control mice (cage 1) received the same volume (0.5 ml) of phosphate buffered saline (PBS—137 mM NaCl, 2.7 mM KCl, 4.3 mM Na2HPO4.7H2O, 1.4 mM KH2PO4, pH 7.3).
Subcutaneous injections in the right hind quarter began on various days depending on the treatment conditions given above. All injections were twice a day, at 8 am and 6 pm. Mice in cages 1 and 2 were fasted on the day prior to sacrifice. Body weight measurements were made on day 1, day 7, day 12 and the day of sacrifice. The weight and length of the large intestine of each animal was measured after sacrifice.

mice = test: Mortality in mice exposed to 10% colitis-inducing dextran sulfate (Example 3); conditions: 10% dextran sulfate in drinking water, 2.5 μg per injection s.c. twice per day, after 9 days; saline group 3 of 10
Method: Mice were also treated with 2 subcutaneous injections per day (0.5 ml) of either saline, or [GLY^2]hGLP-2, 2.5 μg per injection. After 9 days, the experiment was stopped.

Female CD1 mice [2] = test: Effect of GLP-2 on small and large intestinal mass and protein content in mice (Example 1); conditions: 2.5 μg twice daily subcutaneously for 10 days
Method: In this experiment, the effect of GLP-2 on both small and large intestinal mass, as well as the relative contribution of water to the increment in intestine weight, was examined.
Female CD1 mice (6 weeks old) were treated with rat GLP-2, 2.5 μg twice daily (subcutaneously) for 10 days. Following treatment, mice were fasted 24 hours, anesthetized with CO2 and sacrificed. The small and large intestine was removed from the peritoneal cavity (from pylorus to cecum), cleaned, weighed and measured. For comparative purposes, 2 cm segments of proximal jejunum, ileum and colon were obtained from each animal from the identical anatomical positions (as measured from the pylorus and cecum) and analyzed for protein content, wet weight and dry weight (expressed as mean±S.E.M in mg/2 cm segment).
For protein content, two 2 cm segments from the proximal jejunum, ileum and colon were removed, placed in 13 ml tubes containing 2 ml of PBS, homogenized for 20 seconds in a Brinkmann Homogenizer and placed on ice. The tubes were centrifuged for 5 min. at 1000 g and 100 μl aliquots of supernatant homogenate removed for determination of protein content using the modified Bradford method.
To measure wet and dry weight, 2 cm intestinal segments were weighed, placed in culture tubes, reweighed, then freeze-dried overnight in a Fast-Freeze flask (Labconco) and reweighed.

[3] = 5% DS day 7 to day 17, 2.5 μg bid s.c. day 7 to day 17, group 4 vs group 3 (PBS)
[4] = normal drinking water, 2.5 μg bid s.c. for ten days, group 2 vs group 1 (PBS)
[5] = 2 cm segment, vs PBS-treated mice, p<0.05

Substance	body weight through the course of the experiment (Female CD1 mice [1]; [3])	large intestine weight at sacrifice (Female CD1 mice [1]; [3])	large intestine length during experimentally induced colitis (Female CD1 mice [1]; 5% DS day 7 to day 17, 2.5 μg bid s.c., group 4 vs group 3 (PBS))	morbidity, dehydration and reduction in mass of the large intestine caused by induced colitis (Female CD1 mice [1]; agonist given at the same time as 5% DS, day 7 to day 17, group 4 vs group 3)	large intestine length (Female CD1 mice [1]; [4])	post-treatment large intestinal mass (Female CD1 mice [1]; [4])	survival (mice)	dry weight of intestinal segments from the proximal jejunum (Female CD1 mice [2]; [5])	wet weight of intestinal segments from the proximal jejunum (Female CD1 mice [2]; [5])	weights of the segments obtained from the colon (Female CD1 mice [2]; 2 cm segment, wet and dry weight)	protein content in the colon (Female CD1 mice [2]; compared to PBS-treated mice)	protein content in the jejunum (Female CD1 mice [2]; compared to PBS-treated mice)
[Gly^2]hGLP-2: human GLP-2 wherein the alanine at position 2 is replaced by a glycine; DPP-IV resistant analog (HGDGSFSDEMNTILDNLAARDFINWLIQTKITD; Glucagon-like peptide 2; UniProt P01275 146-178, looked up, variant A2G)	maintain body weight better	significantly heavier large intestines	also exhibited, although to a lesser degree	ameliorates the severe morbidity, dehydration, and reduction in mass of the large intestine	significant increase in large intestine length	causes an increase in large intestinal mass	7 of 10	–	–	–	–	–
rat GLP-2: rat GLP-2, 33 amino acid peptide having the sequence SEQ ID NO: 2; used in Example 1 (HADGSFSDEMNTILDNLATRDFINWLIQTKITD; listed as Rattus sp.)	–	–	–	–	–	–	–	significantly increased	significantly increased	slightly, but consistently, increased	statistically significant increase	statistically significant increase
